According to patent US8202886B2, “Small molecule E2F inhibitor” (H. Lee Moffitt Cancer Center and Research Institute, Inc., priority 2008, dated 2012):
Like-named read-outs stand apart in the source and are kept apart here.

Key:
H292 = experiment: Western blots of treated H292 cells; assay type: cell-based
Method: In order to further examine the mechanism of action of the therapeutic compound four lung cancer cell lines were treated with various concentrations of drug and western blots performed on cell extracts after 24 hr.

E2F complexes = experiment: E2F EMSA on extracts of treated breast cancer cell lines; assay type: cell-based; details: 40 μM
Method: Several breast cancer cell lines were treated with 40 μM HLM006474 and extracts subjected to E2F EMSA assay.
(§1) Quantitative EMSA assays were performed in triplicate.

[1] = system: human foreskin fibroblasts (HFF); experiment: Apo-BrdU TUNEL apoptosis assay, HFF; assay type: cell-based; details: 40-μM, 24-hrs
Description: (§2) To determine if treatment with the therapeutic compound contributes to apoptosis, Cells were detached from culture plates by trypsin treatment, washed twice with PBS, and fixed in 70% ethanol. Fixed cells were washed twice with PBS and treated with RNase A and propidium iodide (PI). PI staining was examined using a Becton-Dickinson FACScan instrument and Cell Quest software. TUNEL assay for apoptosis utilized a Pharmingen APO-BRDU Kit. MTS (3-(4,5-dimethylthiazol-2-yl)-5-(3-carboxymethoxyphenyl)-2-(4-sulfophenyl)-2H-tetrazolium, inner salt) assays were conducted using a CellTiter 96® AQueous One Cell Proliferation Assay Kit (Promega).
(§3) A375, MDA-MB-231 (231), MCF-7 and human foreskin fibroblasts (HFF) cells were treated with 40-μM of the therapeutic compound for 24-hrs and subjected to a FACS based terminal deoxynucleotidyl transferase (TUNEL) assay (Apo-BrdU Kit from BD Pharmingen).

E2F4-deficient MEFs = experiment: Apoptosis (ApoBrdU, PARP western) in E2F4-deficient MEFs; assay type: cell-based, mouse
Method: FIG. 12A: MEFS derived from sibling WT and E2F4^−/− mice were treated for 24-hrs with the indicated doses of HLM006474. Apoptosis was determined using ApoBrdU (BD Pharmingen).
FIG. 12B: MEFS derived from sibling WT and E2F4^−/− mice were treated as in A subjected to western blotting using a PARP antibody or E2F4 antibody. PARP cleavage (as indicated by the arrow) is an independent measure of apoptosis.
To determine if the effect of the therapeutic compound is dependent upon E2F4, the inventors compared the therapeutic compound response of immortalized MEFs derived from E2F4-deficient mice with MEFS derived from wildtype siblings.

breast cancer cell lines = experiment: Western blots of Rb family members in breast cancer cell lines; assay type: cell-based; details: 40 micromolar, 24 hrs
A375 cells [2] = experiment: MTS proliferation/viability over time; assay type: cell-based, human; details: 40 μM, 24-, 48- and 72-hrs
Method: To examine its effect on a range of commonly studied cell lines, the inventors utilized standard MTS assays to quantify cell viability following the therapeutic compound treatment. Cytotoxicity was determined using MTS assays, which were conducted using a CellTiter 96® AQueous One Cell Proliferation Assay Kit (Promega) following the published protocol. […] Plates were read at 490 nm following 4 hrs MTS reaction time. The concentration of drug which produced a 50% inhibition of growth (IC50) was calculated from linear regression analysis of the linear portion of the growth curves.

E2F4 [3] = target: T1, E2F4 (Homo sapiens, UniProt Q16254); experiment: Whole-membrane E2F4 western for cleavage products; assay type: cell-based; parameters: endogenous in cells; details: 40 uM
Target sequence in this assay (Q16254 whole entry): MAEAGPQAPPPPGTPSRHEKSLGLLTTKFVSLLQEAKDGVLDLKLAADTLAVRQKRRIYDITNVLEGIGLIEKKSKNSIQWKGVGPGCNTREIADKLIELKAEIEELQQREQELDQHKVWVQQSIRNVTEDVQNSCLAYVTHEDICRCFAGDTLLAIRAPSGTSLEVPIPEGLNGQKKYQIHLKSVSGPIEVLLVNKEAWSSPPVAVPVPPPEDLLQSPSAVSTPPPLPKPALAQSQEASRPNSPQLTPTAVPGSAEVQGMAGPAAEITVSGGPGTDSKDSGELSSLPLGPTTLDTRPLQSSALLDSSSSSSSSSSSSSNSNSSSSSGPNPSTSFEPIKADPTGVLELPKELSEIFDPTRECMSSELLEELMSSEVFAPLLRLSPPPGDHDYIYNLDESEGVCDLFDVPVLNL
Method: The indicated cell lines were treated with 40 micromolar the therapeutic compound and subjected to western blotting 24 hrs later. In this case, the entire lanes were subjected to western blot with an E2F4 antibody in order to detect potential immunoreactive truncation products.
For this experiment cells were treated with 40 uM the therapeutic compound and were subjected to western blotting. However, rather than cut the western membrane into three pieces (to probe simultaneously for three proteins of different sizes) the entire membrane was used to reveal smaller immunoreactive bands.

A375 = experiment: Apo-BrdU TUNEL apoptosis assay, A375; assay type: cell-based, human; details: 40-μM, 24-hrs
Description: as §2, §3

E2F4 [4] = target: T1, E2F4; experiment: E2F4 DNA-binding EMSA on whole cell extracts of treated A375 cells; assay type: cell-based; details: for effect on E2F4 DNA-binding activity: 9-hrs
Method: Whole cell extracts of treated cells were prepared and the DNA-binding activity of E2F4 measured by EMSA.
PhosphoImager EMSA signals from four independent experiments were quantified using ImageQuant and the results are graphed in FIG. 10B. The apparent IC50 (drug concentration required to reduce total E2F4 DNA-binding activity by 50% of untreated cells was calculated using the Statistical Analysis System (Proc Probit)).
To determine the activity of the therapeutic compound over time, A375 cells were treated with 40-μM of compound and examined at 0-, 3-, 6-, 9-, 12-, 18- and 24-hrs by EMSA and western (FIG. 11A).
as §1
Target sequence in this assay (Q16254 2-413 limits assumed): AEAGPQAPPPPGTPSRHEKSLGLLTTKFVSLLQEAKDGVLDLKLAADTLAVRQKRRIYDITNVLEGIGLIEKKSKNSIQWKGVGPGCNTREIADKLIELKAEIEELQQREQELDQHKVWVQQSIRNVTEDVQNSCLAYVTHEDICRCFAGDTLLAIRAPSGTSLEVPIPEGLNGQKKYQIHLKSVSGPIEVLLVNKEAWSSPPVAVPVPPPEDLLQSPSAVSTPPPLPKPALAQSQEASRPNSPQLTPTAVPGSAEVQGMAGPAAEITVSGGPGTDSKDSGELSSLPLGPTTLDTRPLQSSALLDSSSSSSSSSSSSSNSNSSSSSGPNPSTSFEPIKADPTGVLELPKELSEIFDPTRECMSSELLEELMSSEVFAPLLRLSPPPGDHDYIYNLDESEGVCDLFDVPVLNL
Target sequence in this assay (Q14186 whole entry partner): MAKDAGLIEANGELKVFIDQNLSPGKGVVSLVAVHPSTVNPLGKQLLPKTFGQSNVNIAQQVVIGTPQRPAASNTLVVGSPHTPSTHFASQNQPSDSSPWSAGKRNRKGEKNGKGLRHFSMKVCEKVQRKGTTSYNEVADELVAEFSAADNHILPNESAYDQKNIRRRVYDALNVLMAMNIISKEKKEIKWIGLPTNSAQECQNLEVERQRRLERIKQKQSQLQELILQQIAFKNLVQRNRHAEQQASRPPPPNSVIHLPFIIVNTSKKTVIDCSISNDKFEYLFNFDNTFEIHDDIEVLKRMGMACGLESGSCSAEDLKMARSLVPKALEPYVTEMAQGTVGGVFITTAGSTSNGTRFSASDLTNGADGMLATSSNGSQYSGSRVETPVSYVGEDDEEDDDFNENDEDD

A375 cells [5] = experiment: Western blots of treated A375 cells
Method: Actin served as a loading control in these experiments and in those that follow.
To further examine the timing of the therapeutic compound-induced apoptosis, A375 cells were treated with 40-μM the therapeutic compound, harvested and fixed at various time periods.
To compare the mechanism of the therapeutic compound-induced apoptosis with that of several standard DNA damaging drugs, A375 cells were treated for 24-hrs with 40-μM the therapeutic compound, 10 μM cisplatin, 10 nM doxorubicin, 10 μM VP16 (etoposide) or with two-drug combinations.
Western blots utilized 50 μg of whole cell extract per lane as previously described. […] Detection of proteins was accomplished using horseradish-peroxidase-conjugated secondary antibodies and enhanced chemiluminescence (ECL) purchased from Amersham.

231 cells = experiment: RNase protection assay, 231; assay type: cell-based, human
Method: The indicated breast cancer lines were treated with 40 micromolar the therapeutic compound and subjected RNAse protection assay 24 hrs later using the indicated probes.
An RNase protection assay was performed to determine if downregulation of the Rb family members at the level of mRNA could account for the downregulation of the proteins. Two breast cancer cell lines were examined at 0, 3, 6, 9, 18 and 24 hr following the therapeutic compound treatment (FIG. 21).

H358 = experiment: Western blots of treated H358 cells; assay type: cell-based; details: H358, 40 micromolar, 24 hrs
Method: The indicated NSCLC lines were treated with 40 micromolar the therapeutic compound and subjected western blotting 24 hrs later using the indicated antibodies.

MDA-MB-231 = experiment: Apo-BrdU TUNEL apoptosis assay, MDA-MB-231; assay type: cell-based, human; details: 40-μM, 24-hrs
Description: as §2, §3

[6] = system: 8226-s, 8226-dox40 and 8226-MR20; experiment: PARP cleavage western in drug sensitive and resistant 8226 lines; assay type: cell-based, human; details: 24 hours; 10 μM cisplatin or 10, 20 or 40 μM HLM006474
Method: Cells were collected 24 hours post drug exposure and extracts subjected to western blotting using antibodies to the indicated proteins. Cleavage of PARP indicates apoptosis.

With `CCOc1ccc(C(Nc2ccccn2)c2ccc3ccc(C)nc3c2O)cc1C` (centres unmarked) [HLM006474] the “Mcl-1 (western)” value (H292; H292, 40-μM) was “downregulation of Mcl-1”, the “sensitivity (downregulation of E2F1 and E2F4, PARP cleavage)” value (H292; H292, various concentrations, 24 hr) was “limited sensitivity” and the “DNA-binding of all E2F complexes (EMSA)” value (E2F complexes) was “inhibited”. The “apoptosis (TUNEL)” value [1] was “did not induce an obvious increase in apoptosis”, the “sensitivity of E2F4 knockout MEFs versus cells from littermate animals” value (E2F4-deficient MEFs) was “less sensitive” and the “concentration required to detect PARP cleavage” value (E2F4-deficient MEFs; E2F4-deficient MEFs) was 60 µM. The “Rb and p107 proteins (western)” value (breast cancer cell lines) was “dramatically down regulated”, the “cellular proliferation/viability (MTS)” value (A375 cells [2]) was “significantly affected” and the “E2F4 immunoreactive truncation product” value (E2F4 [3]) was “appearance of a 40 kD band”. The “apoptosis (TUNEL)” value (A375) was “dramatic induction of apoptosis”, the “effect on E2F4 DNA-binding activity” value (E2F4 [4]; 10 and 20-μM) was “limited effect” and the “reduction of E2F4 activity” value (E2F4 [4]; 40-μM drug, expected from dose response) was 50-75%. For the same compound, the “effect on E2F4 DNA-binding activity” value (E2F4 [4]; 40-μM) was “inhibition is clearly apparent”, the IC50 (E2F4 [4]; A375 cells treated 9-hrs, EMSA, Proc Probit, read-out: IC50 (drug concentration required to reduce total E2F4 DNA-binding activity by 50% of untreated cells)) was 29.8 µM and the IC50 (E2F4 [4]; as restated for the NCI60 screen, read-out: known IC50) was 30 µM. The “time at which inhibition of E2F4 DNA-binding activity became apparent” value (E2F4 [4]; single 40-μM dose) was 9 h, the “expression of E2F4 or E2F1 (western)” value (A375 cells [5]; 9-hrs of treatment) was “does not significantly affect” and the “Mcl-1 (western)” value (A375 cells [5]; 24-hrs, 40-μM) was “may slightly repress Mcl-1”. The “PARP cleavage (western)” value (A375 cells [5]; 24-hrs, 40-μM) was “potent inducer of PARP cleavage”, the “time at which PARP cleavage indicates significant apoptosis” value (A375 cells [5]; 40-μM) was no more than 12 h and the “time at which decrease in total E2F4 protein became apparent” value (A375 cells [5]; 40-μM) was “up to 24 hrs”. The “Rb at the mRNA level” value (231 cells) was “no significant change”, the “p21 mRNA” value (231 cells) was “upregulated” and the “cyclin A or E2F1 (western)” value (H358) was “no decrease”. For the same compound, the “apoptosis (TUNEL)” value (MDA-MB-231) was “dramatic induction of apoptosis” and the “PARP cleavage (apoptosis) in sensitive versus resistant lines” value [6] was “very similar”.
